Results from patent publication US8192962B2, “Processes for detecting toxic substances” (Daikin Industries, Ltd., priority 2001, dated 2012).

System: Metabolism protein genes
Experiment: DNA chip mRNA expression in yeast, metabolism protein genes (Table 7)
Format: cell-based, Saccharomyces cerevisiae S288C
Experimental: Yeast (Saccharomyces cerevisiae S288C (α SUC2mal mel gap2 CUP1)) were incubated at 25° C. on YPD medium (yeast extract 1%, polypepton 2%, glucose 2%). One of toxic chemical substances was added to the cells at logarithmic growth phase, and the cells were further incubated for two hours. Cells were cultured without any chemical substance in the same condition, and were used as control. Concentrations of the chemical substances were defined to inhibit the growth of the yeast but not lead to death.
After completion of the incubation, the culture was centrifuged to collect the cells. To the cells, sodium acetate buffer (50 mM sodium acetate, 10 mM EDTA, 1% SDS) was added, and the mixture was shaken at 65° C. for five minutes, followed by returning to room temperature, and obtaining the supernatant, of which the procedures were repeated two times. To the supernatant, ½ amount of a solution of phenol/chloroform was added, and the mixture was centrifuged to give a supernatant, which was added with an equal amount of chloroform, and the mixture was centrifuged to give a supernatant. To the supernatant, an equal amount of isopropanol containing 0.3 M sodium acetate was added, and the mixture was allowed to stand at room temperature for 30 minutes, after which the mixture was centrifuged to give a sediment of the whole RNAs. Seventy % ethanol was added to the sediment, and the mixture was again centrifuged to give a sediment, which was then dried and dissolved in water. mRNA was isolated from the whole RNAs as followings. In view of the fact that a poly A chain is attached to the 3′ terminus of mRNA, a polynucleotide having a poly T structure which was immobilized on the surface of latex beads was used to trap the mRNA, and then the mRNA was washed and eluted with spine column (Oligotex-dT30<Super>mRNA Purification Kit, Takara). Reverse transcription of the mRNA was conducted with a reverse transcriptase (Super Script II Reverse Transcriptase; catalogue No. 18064-014, GibcoBRL) using fluorescence-labeled nucleotides to give cDNAs that were introduced with Cy3-dUTP or Cy5-dUTP during the reverse transcription.
The labeled cDNAs were dissolved in TE buffer (10mM Tris-HCl/1 mM EDTA, pH8.0), and the solution was dropped on the DNA chip containing the whole genes of yeast (DNA Chip Research Inc. Japan) so that the cDNAs were hybridized on the DNA chip at 65° C. for over 12 hours. The fluoresces intensity of the DNA chip was read with a scanner, and the ratio relative to the fluorescence intensity resulting from the absence of chemical substance was estimated as the following, which is shown in Tables 1 to 9: […]

## N#Cc1c(Cl)c(Cl)c(Cl)c(C#N)c1Cl [(9), 2,4,5,6-tetrachloro-1,3-benzenedicarbonitrile]
Yeast gene YER178W
  The level of expressed mRNA in the presence of chemical substance/The level of expressed mRNA in the absence of chemical substance: 1.7
Yeast gene YFL011W
  level of expressed mRNA in the presence/in the absence of chemical substance: 0.3
Yeast gene YFL014W
  The level of expressed mRNA in the presence of chemical substance/The level of expressed mRNA in the absence of chemical substance: 13.1
Yeast gene YFL030W
  The level of expressed mRNA in the presence of chemical substance/The level of expressed mRNA in the absence of chemical substance: 24.5
Yeast gene YFL031W
  The level of expressed mRNA in the presence of chemical substance/The level of expressed mRNA in the absence of chemical substance: 1.0
Yeast gene YFL056C
  The level of expressed mRNA in the presence of chemical substance/The level of expressed mRNA in the absence of chemical substance: 162.3
Yeast gene YFL057C
  The level of expressed mRNA in the presence of chemical substance/The level of expressed mRNA in the absence of chemical substance: 51.8
Yeast gene YFR047C
  The level of expressed mRNA in the presence of chemical substance/The level of expressed mRNA in the absence of chemical substance: 3.0
Yeast gene YGL012W
  level of expressed mRNA in the presence/in the absence of chemical substance: 0.3
Yeast gene YGL022W
  The level of expressed mRNA in the presence of chemical substance/The level of expressed mRNA in the absence of chemical substance: 0.9
Yeast gene YGL026C
  The level of expressed mRNA in the presence of chemical substance/The level of expressed mRNA in the absence of chemical substance: 3.7
Yeast gene YGL115W
  level of expressed mRNA in the presence/in the absence of chemical substance: 1.2
Yeast gene YGL126W
  The level of expressed mRNA in the presence of chemical substance/The level of expressed mRNA in the absence of chemical substance: 1.6
Yeast gene YGL202W
  The level of expressed mRNA in the presence of chemical substance/The level of expressed mRNA in the absence of chemical substance: 1.3
Yeast gene YGL209W
  The level of expressed mRNA in the presence of chemical substance/The level of expressed mRNA in the absence of chemical substance: 0.6
Yeast gene YGL248W
  The level of expressed mRNA in the presence of chemical substance/The level of expressed mRNA in the absence of chemical substance: 0.2
Yeast gene YGL252C
  The level of expressed mRNA in the presence of chemical substance/The level of expressed mRNA in the absence of chemical substance: 2.7
Yeast gene YGL254W
  The level of expressed mRNA in the presence of chemical substance/The level of expressed mRNA in the absence of chemical substance: 3.1
Yeast gene YGR037C
  The level of expressed mRNA in the presence of chemical substance/The level of expressed mRNA in the absence of chemical substance: 1.7
Yeast gene YGR055W
  The level of expressed mRNA in the presence of chemical substance/The level of expressed mRNA in the absence of chemical substance: 5.0
Yeast gene YGR096W
  level of expressed mRNA in the presence/in the absence of chemical substance: 0.8
Yeast gene YGR191W
  level of expressed mRNA in the presence/in the absence of chemical substance: 0.1
Yeast gene YGR194C
  The level of expressed mRNA in the presence of chemical substance/The level of expressed mRNA in the absence of chemical substance: 2.4
Yeast gene YGR204W
  level of expressed mRNA in the presence/in the absence of chemical substance: 0.9
Yeast gene YGR256W
  The level of expressed mRNA in the presence of chemical substance/The level of expressed mRNA in the absence of chemical substance: 3.4
Yeast gene YGR282C
  The level of expressed mRNA in the presence of chemical substance/The level of expressed mRNA in the absence of chemical substance: 0.8
Yeast gene YGR288W
  level of expressed mRNA in the presence/in the absence of chemical substance: 1.6
Yeast gene YHR025W
  level of expressed mRNA in the presence/in the absence of chemical substance: 0.2
Yeast gene YHR111W
  The level of expressed mRNA in the presence of chemical substance/The level of expressed mRNA in the absence of chemical substance: 4.5
Yeast gene YHR123W
  level of expressed mRNA in the presence/in the absence of chemical substance: 0.8
Yeast gene YHR137W
  The level of expressed mRNA in the presence of chemical substance/The level of expressed mRNA in the absence of chemical substance: 0.2
Yeast gene YHR174W
  The level of expressed mRNA in the presence of chemical substance/The level of expressed mRNA in the absence of chemical substance: 1.0
Yeast gene YHR176W
  The level of expressed mRNA in the presence of chemical substance/The level of expressed mRNA in the absence of chemical substance: 6.3
Yeast gene YIL006W
  level of expressed mRNA in the presence/in the absence of chemical substance: 0.9
Yeast gene YIL045W
  The level of expressed mRNA in the presence of chemical substance/The level of expressed mRNA in the absence of chemical substance: 2.1
Yeast gene YIL107C
  The level of expressed mRNA in the presence of chemical substance/The level of expressed mRNA in the absence of chemical substance: 3.5
Yeast gene YIL154C
  The level of expressed mRNA in the presence of chemical substance/The level of expressed mRNA in the absence of chemical substance: 2.4
Yeast gene YIL155C
  The level of expressed mRNA in the presence of chemical substance/The level of expressed mRNA in the absence of chemical substance: 2.5
Yeast gene YIL167W
  The level of expressed mRNA in the presence of chemical substance/The level of expressed mRNA in the absence of chemical substance: 6.9
Yeast gene YIL168W
  The level of expressed mRNA in the presence of chemical substance/The level of expressed mRNA in the absence of chemical substance: 7.8
Yeast gene YIR031C
  The level of expressed mRNA in the presence of chemical substance/The level of expressed mRNA in the absence of chemical substance: 2.6
Yeast gene YIR032C
  The level of expressed mRNA in the presence of chemical substance/The level of expressed mRNA in the absence of chemical substance: 2.6
Yeast gene YIR034C
  The level of expressed mRNA in the presence of chemical substance/The level of expressed mRNA in the absence of chemical substance: 3.2
Yeast gene YIR036C
  The level of expressed mRNA in the presence of chemical substance/The level of expressed mRNA in the absence of chemical substance: 3.3
Yeast gene YJL031C
  The level of expressed mRNA in the presence of chemical substance/The level of expressed mRNA in the absence of chemical substance: 4.7
Yeast gene YJL045W
  The level of expressed mRNA in the presence of chemical substance/The level of expressed mRNA in the absence of chemical substance: 9.7
Yeast gene YJL060W
  The level of expressed mRNA in the presence of chemical substance/The level of expressed mRNA in the absence of chemical substance: 5.3
Yeast gene YJL068C
  The level of expressed mRNA in the presence of chemical substance/The level of expressed mRNA in the absence of chemical substance: 6.5
Yeast gene YJL088W
  The level of expressed mRNA in the presence of chemical substance/The level of expressed mRNA in the absence of chemical substance: 3.2
Yeast gene YJL099W
  The level of expressed mRNA in the presence of chemical substance/The level of expressed mRNA in the absence of chemical substance: 3.1
